Where two headings read alike, the source gives them in different places.
Columns and labels:
[1] = target: KRAS-PI3Kα interaction (KRAS-Q25A binding to avi-tagged full length PI3Kα) (Homo sapiens (Human), UniProt P42336); assay: Disrupting KRAS-PI3Kα interaction by SPR inhibition assay; conditions: KRAS-Q25A at 20 μM, 25° C.
Procedure: SPR binding experiments were collected on a Biacore 8K Instrument (Cytiva). Neutravidin (Pierce) was amine coupled to the carboxymethylated dextran surface of a CM5 sensor chip (Cytiva) using standard amine coupling chemistry. The CM5 chip surface was first activated with 0.1 M N-hydroxy succinimide and 0.4 M N-ethyl-N′-(3-dimethyl aminopropyl) carbodiimide at a flow rate of 20 μL/min using 20 mM HEPES pH 7.4, 150 mM NaCl as the running buffer. Next, neutravidin was diluted to 20 μg/mL in 10 mM sodium acetate (pH 4.5) and injected on all flow cells until a density of approximately 10,000 response units (RU) was immobilized. Activated amine groups were quenched with an injection of 1 M ethanolamine (pH 8.0). 300-500 RU of avi-tagged full length PI3Kα was captured on all flow cells in 20 mM HEPES pH 7.4, 150 mM NaCl, 5 mM MgCl2, 1 mM TCEP, 0.05% tween 20, 5% DMSO buffer. KRAS-Q25A at 20 μM was mixed with 8 concentrations of compound (50 nM-100 μM) and injected over the full-length PI3Kα at 30 μL/min and 25° C. Steady-state levels of KRAS binding were recorded and fit with a 4-parameter inhibition model to determine the IC50 values.

[2] = target: Cys242 in human PIK3CA (157-299) (Homo sapiens (Human), UniProt P42336); assay: Covalent modification assay using MALDI-TOF MS; type: biochemical; conditions: 4 h reaction time point; 3.33 μM protein target, 1:7.5 protein to compound ratio (compounds 1-852)
Cys242 in human PIK3CA (157-299), sequence (P42336 157-299): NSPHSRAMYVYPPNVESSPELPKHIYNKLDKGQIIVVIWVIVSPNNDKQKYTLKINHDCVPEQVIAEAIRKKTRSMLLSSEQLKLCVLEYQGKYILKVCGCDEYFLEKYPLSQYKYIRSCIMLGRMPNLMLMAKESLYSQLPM
Outline: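 PIK3CA (157-299) at 3.33 μM or 1 μM in 20 mM HEPES, 150 mM NaCl, 2 mM MgCl2, pH 7.3 was incubated with compound (from 10 mM DMSO stocks) in the dark at room temperature for 15 min, 30 min, 2 h or 4 h. Linear-mode MALDI-TOF peak heights gave percent modification.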

[3] = system: pAKT in Tet-on KRAS G12D HeLa cells; assay: Cell-based pAKT HTRF assay in Tet-on KRAS G12D HeLa cells; conditions: read-out: pAKT inhibition IC50 in Tet-on KRAS G12D HeLa cells
Procedure: To determine the effectiveness of compounds in disrupting PIK3CA/KRAS signaling in cells, we implemented pAKT HTRF assay (Perkin-Elmer) in Tet-on KRAS G12D HeLa cells.
On Day 1, cells were seeded into 96-well plates at 2×10^4 cells/well in complete growth media (DMEM, 10% Tet-Screened FBS) supplemented with 200 ng/mL doxycycline.
On Day 2, cells were treated with compounds at 0.25% DMSO. The source plate was created with compounds diluted in media at 5-fold the final assay concentration. The compounds are run in a 9-point concentration curve starting at 75 μM, with a 3-fold dilution between concentrations. […] 20 μL was transferred onto the cell plates (final volume in wells was 100 μL). Plates were harvested after 30 min and 4 hr incubation by aspirating media and adding kit-supplied 1× supplemented lysis buffer to all wells (50 μL per well). This then changed to 4 hr only when compounds became covalent. Plates were then placed on a plate shaker and incubated at 850 rpm for an additional 30 min. The antibody mixture solution was prepared by diluting aliquoted d2 and Eu Cryptate antibodies 1:20 in kit supplied detection buffer, then mixed the diluted antibodies solutions (1:1 v:v). 4 μL of this solution was then added to a 384-well detection plate (Perkin Elmer; 6008230). Samples were homogenized by pipetting up and down and then transferred (16 μL of cell lysates) from the 96-well cell culture plate to two wells of the HTRF 384-well detection plate containing the antibody solution. Plates were centrifuged (524 g for 1 min) and allowed to incubate between 4 and 24 h at room temperature. The maximum signal is reached after 4 h incubation time and remains stable over a period of 24 hours. Therefore, readings can be made between 4 and 24 h of incubation. Plates were centrifuged again (524 g for 1 min), and analyzed on the EnVision plate reader using the following settings: Excitation 320 nm, Bandwidth […]; Emission 615 nm, Bandwidth […], Gain 100%, Flashes 100, Lag 60 μs.

[4] = Blood glucose after an oral glucose tolerance test in fasted male mice (FIG. 3C); type: in vivo; conditions: single dose
Procedure: (§1) (One-way ANOVA with Dunnett's test vs. vehicle; *=p<0.01; **=p<0.0001). From left to right along x-axis in FIG. 3B: vehicle, 30 mg/kg BBO, 100 mg/kg BBO, 300 mg/kg BBO, 50 mg/kg alpelisib. […] (One-way ANOVA with Tukey's multiple comparisons test vs all other groups: *p<0.0001) (IV=intravenous administration; PO=per os or oral administration; ng/mL=nanograms per milliliters; mg/kg=milligrams per kilogram; mg/dL=milligrams per deciliter; min=minutes; CDX=cell line derived xenograft; QD=quaque die or once daily, PK=pharmacokinetics)

[5] = Phase III clinical trial; cited from earlier work
[6] = Serum insulin levels in fed mice; type: in vivo; conditions: fed male C57/BL6J mice, 240 minutes after one oral dose 50 mg/kg
Procedure: In the second study, serum insulin levels were measured in fed mice following administration of compounds to determine if Compound 58 induces hyperinsulinemia like the PI3Kα kinase domain inhibitor alpelisib (FIG. 3D). Approximately 5 μL of whole blood was collected via tail snip from male C57/BL6J mice and used to measure fed blood glucose levels using a glucometer. Mice were randomized into three groups (8 mice per group) based on blood glucose levels and then administered one oral dose of vehicle, 50 mg/kg alpelisib, or 300 mg/kg Compound 58. 240 minutes later, whole blood was collected and processed to serum and insulin levels were measured using an ELISA.

[7] = Insulin levels in fed male mice (FIG. 3D); type: in vivo; conditions: single oral dose 50 mg/kg, 240 minutes after administration
Procedure: as §1

[8] = system: pAKT (Ser473) in BT474 CDX tumors; assay: Pharmacodynamic activity (tumor pAKT) in BT474 cell line-derived xenograft model; type: in vivo, mice; conditions: NOD/SCID mice, 4 hours after one oral dose of 50 mg/kg
Procedure: An in vivo study was conducted to evaluate the pharmacodynamic activity of Compound 58 in the breast cancer estrogen receptor positive (ER+) BT474 cell line-derived xenograft (CDX) model, which harbors a HER2 amplification and PIK3CA linker domain K111N mutation (FIG. 3B). NOD/SCID mice were implanted subcutaneously with BT474 human tumor cells and were injected subcutaneously with estradiol benzoate twice a week to support tumor growth. When tumors reached a mean size of 286 mm^3, mice were randomized into treatment groups (4 mice per group) and administered one oral dose of vehicle, 30 mg/kg Compound 58, 100 mg/kg Compound 58, 300 mg/kg Compound 58, or 50 mg/kg alpelisib. Alpelisib is a PI3Kα kinase domain inhibitor and was included as a positive control. Whole blood and tumors were collected 4 hours post the dose. Blood was processed to plasma and compound concentrations were determined with LC-MS/MS. Tumors were processed into lysates and pAKT levels were measured using the Meso Scale Diagnostics (MSD) multi-spot pAKT (Ser473)/total AKT assay whole cell lysate kit.

[9] = Oral glucose tolerance test in fasted mice; type: in vivo; conditions: fasted male C57/BL6J mice, one oral dose 50 mg/kg, 2 g/kg glucose 1 h later, 15-120 minutes
Procedure: Two in vivo studies were performed to determine whether Compound 58 administration induces hyperglycemia and hyperinsulinemia in mice like the PI3Kα kinase domain inhibitor alpelisib (FIGS. 3C and 3D). In the first study, an oral glucose tolerance test was performed in fasted mice following the administration of compounds to determine if Compound 58 induces hyperglycemia (FIG. 3C). Male C57/BL6J mice were fasted overnight for 16 hours and approximately 5 μL of whole blood was collected via tail snip to measure fasted blood glucose levels using a glucometer. Mice were randomized into three groups (8 mice per group) based on blood glucose levels and then administered one oral dose of vehicle, 50 mg/kg alpelisib, or 300 mg/kg Compound 58. One hour later, blood was collected for a glucose measurement and then a single oral dose of a 2 g/kg glucose solution was administered. Blood glucose measurements were performed at 15, 30, 60, 90, and 120 minutes after the administration of the glucose solution.

[10] = system: pAKT in BT474 cells; assay: Cell-based pAKT HTRF assay in BT474 cells
Outline: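 BT474 cells in DMEM/10% FBS were treated the day after seeding with a 9-point, 3-fold compound series from 3 μM (0.25% DMSO) for 4 hr. Lysates were mixed with d2 and Eu cryptate anti-pAKT antibodies and incubated 4-24 h at room temperature. HTRF was read with excitation at 320 nm and emission at 615 nm.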

[11] = system: BT474 cell line; assay: Cell viability in BT474 cell line; type: cell-based; conditions: Homo sapiens, BT-474
Text: Table 8 compares the pAKT IC50 and cell viability for Compound 58, a PI3Kα breaker, and the PI3Kα inhibitor alpelisib in the breast cancer estrogen receptor positive (ER+) BT474 cell line, which harbors a HER2 amplification and PIK3CA linker domain K111N mutation. […] Importantly, the potency on pAKT translates well into a loss in cellular viability.

KRAS-PI3Kα interaction (KRAS-Q25A binding to avi-tagged full length PI3Kα), sequence (P42336 whole entry, looked up, stated change not applied): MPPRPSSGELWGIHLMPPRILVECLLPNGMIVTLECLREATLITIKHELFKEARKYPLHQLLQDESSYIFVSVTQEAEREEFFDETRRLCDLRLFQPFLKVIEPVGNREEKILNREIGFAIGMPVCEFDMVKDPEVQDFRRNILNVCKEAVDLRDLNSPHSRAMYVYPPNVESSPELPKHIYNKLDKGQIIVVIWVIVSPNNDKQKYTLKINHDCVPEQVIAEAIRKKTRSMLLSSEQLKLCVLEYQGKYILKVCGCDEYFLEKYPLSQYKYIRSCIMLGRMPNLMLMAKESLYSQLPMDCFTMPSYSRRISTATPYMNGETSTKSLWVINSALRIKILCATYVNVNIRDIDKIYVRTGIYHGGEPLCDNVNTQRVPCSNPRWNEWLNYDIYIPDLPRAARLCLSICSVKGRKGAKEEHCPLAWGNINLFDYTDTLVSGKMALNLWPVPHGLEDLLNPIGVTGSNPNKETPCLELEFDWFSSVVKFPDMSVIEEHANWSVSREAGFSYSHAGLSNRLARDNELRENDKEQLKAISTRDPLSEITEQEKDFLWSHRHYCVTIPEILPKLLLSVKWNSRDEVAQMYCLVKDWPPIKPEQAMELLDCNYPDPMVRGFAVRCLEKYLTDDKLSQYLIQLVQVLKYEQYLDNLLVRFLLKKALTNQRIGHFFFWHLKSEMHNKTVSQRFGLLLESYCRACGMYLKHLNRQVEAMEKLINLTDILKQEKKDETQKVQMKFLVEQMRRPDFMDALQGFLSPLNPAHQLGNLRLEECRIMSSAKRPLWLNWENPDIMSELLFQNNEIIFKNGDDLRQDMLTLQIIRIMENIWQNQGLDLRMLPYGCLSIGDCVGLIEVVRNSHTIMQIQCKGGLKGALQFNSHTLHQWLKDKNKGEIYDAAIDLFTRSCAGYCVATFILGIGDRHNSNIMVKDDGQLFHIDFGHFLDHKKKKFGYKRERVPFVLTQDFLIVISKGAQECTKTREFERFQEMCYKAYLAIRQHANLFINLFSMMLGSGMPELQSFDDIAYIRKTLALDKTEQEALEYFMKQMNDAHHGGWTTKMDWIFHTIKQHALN
KRAS-PI3Kα interaction (KRAS-Q25A binding to avi-tagged full length PI3Kα), sequence (P27986 whole entry partner, looked up): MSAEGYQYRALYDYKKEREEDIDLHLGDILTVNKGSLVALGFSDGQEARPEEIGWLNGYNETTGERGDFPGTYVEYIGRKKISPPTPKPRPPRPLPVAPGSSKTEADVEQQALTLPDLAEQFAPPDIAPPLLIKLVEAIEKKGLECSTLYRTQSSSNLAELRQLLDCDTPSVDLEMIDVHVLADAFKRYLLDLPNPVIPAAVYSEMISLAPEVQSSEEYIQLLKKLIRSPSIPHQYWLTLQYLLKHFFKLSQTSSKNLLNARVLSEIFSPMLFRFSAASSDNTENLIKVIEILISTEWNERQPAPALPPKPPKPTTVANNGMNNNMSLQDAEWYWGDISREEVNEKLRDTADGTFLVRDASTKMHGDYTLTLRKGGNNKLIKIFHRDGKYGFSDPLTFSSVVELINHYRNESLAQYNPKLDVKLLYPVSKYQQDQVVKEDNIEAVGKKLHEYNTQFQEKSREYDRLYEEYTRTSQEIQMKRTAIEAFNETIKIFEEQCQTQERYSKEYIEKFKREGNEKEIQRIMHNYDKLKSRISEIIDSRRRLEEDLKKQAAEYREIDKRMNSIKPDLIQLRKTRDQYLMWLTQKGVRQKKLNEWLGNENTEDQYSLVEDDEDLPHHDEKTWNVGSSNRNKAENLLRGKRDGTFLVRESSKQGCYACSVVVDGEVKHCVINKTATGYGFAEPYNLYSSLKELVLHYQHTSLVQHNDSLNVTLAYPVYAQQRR

IC50 [1] [µM]	IC50 ([3]; Tet-on KRAS G12D HeLa cells) [µM]	SMILES	% of modification [2]	other results
< 5	–	C=CC(=O)NCc1cccc(-c2nc(-c3ccc4c(c3)CCNC4)c3ccsc3c2-c2ccc(F)cc2OCCOC)c1 [Compound 11, N-[[3-[7-[4-fluoro-2-(2-methoxyethoxy)phenyl]-4-(1,2,3,4-tetrahydroisoquinolin-6-yl)thieno[3,2-c]pyridin-6-yl]phenyl]methyl]prop-2-enamide]	C (25%≤percent of modification <50%)	IC50 ([3]; Homo sapiens, HeLa): 1 to 10 µM
–	–	Cc1nc(NC(=O)N2CCC[C@H]2C(N)=O)sc1-c1ccnc(C(C)(C)C(F)(F)F)c1 [alpelisib, reference compound]	–	blood glucose levels (hyperglycemia) [4]: Hyperglycemia is observed; patients in whom hyperglycemia was observed [5]: 65%; Serum insulin levels [6]: significantly elevated; insulin levels (hyperinsulinemia) [7]: Hyperinsulinemia is observed; pAKT inhibited [8]: 97%; Blood glucose levels after glucose dose (oral glucose tolerance test) [9]: significantly elevated; IC50 ([10]; Homo sapiens, BT-474, BT474 cell line, read-out: pAKT (IC50)): 0.169 µM; IC50 [11]: 0.744 µM
< 5	1 to 10	COCCOc1cc(F)ccc1-c1c(-c2cccc(CNC(=O)C(C)C)c2)nc(-c2ccc3c(c2)CCNC3)c2ccsc12 [compound 10]	–	IC50 ([10]; BT474 cells, 4 hr incubation, Compounds 10-999, read-out: pAKT inhibition IC50 in BT474 cells): 1 to 3 µM
5 to 25	< 1	C=CC(=O)N1CCC(n2cc(-c3nc(-c4ccc5c(c4)CCNC5)c4ccsc4c3-c3ccc(F)cc3OCCOC)cn2)CC1 [compound 30]	A (percent of modification of PIK3CA protein ≥75%)	–
5 to 25	< 1	C=CC(=O)Nc1cccc(-c2nc(-c3ccc4c(c3)CCN(C)C4)c3ccsc3c2-c2ccc(F)cc2OCCOC)c1 [compound 32]	A (percent of modification of PIK3CA protein ≥75%)	–
< 5	1 to 10	C=CC(=O)Nc1cccc(-c2nc(-c3ccc4c(c3)CCC(N(C)C)C4)c3ccsc3c2-c2ccc(F)cc2OCCOC)c1 (centres unmarked) [compound 36]	A (percent of modification of PIK3CA protein ≥75%)	–
< 5	1 to 10	C=CC(=O)NCCc1cccc(-c2nc(-c3ccc4c(c3)CCNC4)c3ccsc3c2-c2ccc(F)cc2OCCOC)c1 [compound 40]	A (percent of modification of PIK3CA protein ≥75%)	–
5 to 25	< 1	C=CC(=O)N1CCC(n2cc(-c3nc(-c4ccc5c(c4)CCN(C)C5)c4ccsc4c3-c3ccc(F)cc3OCCOC)cn2)C1 (centres unmarked) [compound 43]	A (percent of modification of PIK3CA protein ≥75%)	–
5 to 25	< 1	C=CC(=O)N1CC[C@@H](n2cc(-c3nc(-c4ccc5c(c4)CCNC5)c4ccsc4c3-c3ccc(F)cc3OCCOC)cn2)C1 [compound 46]	A (percent of modification of PIK3CA protein ≥75%)	–

SMILES	IC50 [1] [µM]	IC50 ([3]; Tet-on KRAS G12D HeLa cells) [µM]	% of modification [2]	other results
C=CC(=O)NCc1cccc(-c2nc(-c3ccc4c(c3)CCNC4)c3c(c2-c2ccccc2OCCOC)CCC3)c1 [Compound 1, N-(3-(4-(2-(2-methoxvethoxy)phenyl)-1-(1,2,3,4-tetrahydroisoquinolin-6-yl)-6,7-dihydro-5H-cyclopenta[c]pyridin-3-yl)benzyl)acrylamide]	5 to 25	1 to 10	D (percent of modification <25%)	–

Reference: US20250230138A1, “COMPOUNDS HAVING A T-STRUCTURE FORMED BY AT LEAST FOUR CYCLES FOR USE IN THE TREATMENT OF CANCER AND OTHER INDICATIONS” (TheRas, Inc., priority 2022, published 2025)
